One data set has as its system U-2 OS cells. The data set is described as follows: Confocal laser scanning microscopy (CLSM) localisation analysis. In kind it is cell-based, human. The note with it: 30 min incubation, Ex 637 nm, Em >665 nm, FIG. 4 and 5. How it is done: Confocal laser scanning microscopy (CLSM) was used to analyse the localisation of compounds BST-100, BST-101 and BST-106 with the U-2 OS cells, as it permitted the acquisition of volume limited optical sections through the cell and media. Excitation (637 nm) and emission (>665 nm) values for the probe analysis were the optimal conditions. The data sets obtained were processed and assembled into a single maximum projection image.
The patterns were analysed after 30 min incubation at different z depths and eliminating the solution background. The nucleus/cytoplasm ratio was calculated to quantify the localisation of the probe per cell.
A Radiance CLSM (BioRad Microscience) was used attached to an inverted Nikon microscope. Image acquisition was performed using excitation (637 nm) and emission (>665 nm) wavelengths. The histogram plot reports the nucleus/cytoplasm index to determine DNA binding in live cells. The calibration bar represents 10 μm.
The compounds BST-108, BST-109 were analysed in the same way.

The test system of another data set is A549 live cells. Kind of data set: Loading of A549 live cells, wide-field fluorescence microscopy. The note with it: 20 μM, 30 min incubation, FIG. 3. In kind it is cell-based, human. How it is done:
(§1) Before analysis, cells were incubated at 37° C. in the dark for the period designated. Samples were analysed directly without any further washing step. For live cell labelling cells were seeded, plated in a similar way, into a similar multi-well dish for optimal optical performance and could be used across all microscope platforms.
(§2) This basic protocol was the standard for testing the patterns of AAQ agents at 20 μM, compared to 20 μM of DRAQ5 as the benchmark reference (both in terms of cellular location and ability to detect the red fluorescence).
Low resolution wide-field fluorescence microscopy was used to evaluate cell uptake and localisation of the probe compounds. The system was an Axiovert 100 microscope (Carl Zeiss, Welwyn Garden City, UK) ×10 0.3 NA air objective lens and an ORCA-ER CCD camera (Hamamatsu, Reading, UK). Illumination was controlled by a shutter in front of the transmission lamp. Image capture was controlled using Metamorph software. Human non-small cell lung cancer A549 cell line was used as the cell model to determine whether variation of the probe loading and localisation occurred in cell population sustaining a “side population” (SP) (Smith P J, Wiltshire M, Chappell S C, Cosentino L, Burns P A, Pors K, Errington R J. Kinetic analysis of intracellular Hoechst 33342—DNA interactions by flow cytometry: misinterpretation of side population status? Cytometry A 2013; 83:161-9) with a known capacity to efflux xenobiotic molecules, including the DNA dye Hoechst 33342.
Cells were incubated for 30 min with each compound and then images were collected at a 30 ms exposure time using low resolution wide-field fluorescence microscopy. Using an Axiovert 100 microscope (Carl Zeiss, Welwyn Garden City, UK) ×10 0.3 NA air objective lens and an ORCA-ER CCD camera (Hamamatsu, Reading, UK). Illumination was controlled by a shutter in front of the transmission lamp. Image capture was controlled using Metamorph software. The calibration bar represents 50 μm.

The test system of a further data set is A549. Kind of data set: MTT cellular viability (growth inhibition) assay, A549. The format is cell-based. The note with it: Homo sapiens, 0.25-100 μM, 72 h, Table 3. How it is done: (§3) The viability of A549 or MCF7 in response to compounds was determined using the MTT (3-(4,5-dimethylthiazolyl-2-)-2, 5-diphenyltetrazolium bromide) assay according to the protocol set out in Mosmann T., Rapid colorimetric assay for cellular growth and survival: application to proliferation and cytotoxicity assays. Journal of immunological methods 1983; 65:55-63.
(§4) Initially, cells were seeded into a rounded-bottom 96 well plate (Corning) at six different cell seeding densities (0.5×104, 1×104, 2×104, 3×104, 4×104, and 5×104) per mL of R10 media (cells/mL) in order to optimise the assay and establish the most suitable seeding assay. Concentration of 1×10^4 cells/mL was determined to be the optimum seeding density for both cell lines for 96 h total incubation. A control lane contained supplemented R10 only. The 96 well plates were incubated overnight at 37° C., 5% CO2 and 100% humidity to allow cell adhesion. Cells were then treated respectively with novel AAQs (0.25-100 μM) or growth inhibition (IC50) of compounds of the invention was studied against MCF7 and A549 cancer cell lines. Compounds were tested with a concentration range between 0.25 and 100 μM for 72 h and doxorubicin, as positive cytotoxic control, was tested in parallel at the same doses.

In data set [1] the test system is fixed human osteosarcoma U-2 OS cells. Kind of data set: Labelling of fixed cells, wide-field fluorescence microscopy. The format is cell-based. The note with it: 20 μM, 1 h exposure in PBS, FIG. 2. How it is done: Cells were seeded in a 24 well coverslip bottomed-plate, cultured overnight in McCoys media. 24 or 48 hours later the cells were washed gently with 3×2 mL PBS per well. The PBS was removed and 0.5 mL of 4% paraformaldehyde solution [a 4% paraformaldehyde solution in PBS was made fresh each time from a 16% stock solution (Thermo Fisher Scientific)] was added in each well and cells were incubated for 30 min. The paraformaldehyde was removed and cells were washed 3×2 mL PBS per well. 1 mL of PBS or HEPES was added to each well.
as §1, §2
Low resolution wide-field fluorescence microscopy was used to evaluate cell labelling in fixed human osteosarcoma U-2 OS cells. The system was an Axiovert 100 microscope (Carl Zeiss, Welwyn Garden City, UK) ×10 0.3 NA air objective lens and an ORCA-ER CCD camera (Hamamatsu, Reading, UK). Illumination was controlled by a shutter in front of the transmission lamp. Image capture was controlled using Metamorph software. This evaluates the ability of the compounds to label cellular compartments without active uptake or efflux prohibiting delivery into the given cell. Image collection was performed after 1 h of exposure to probes in PBS. The calibration bar represents 50 μm.

Data set [2] is described as follows: Absorption and fluorescence spectra of compounds in PBS or HEPES. In kind it is physicochemical. The note with it: for fluorescence emission, 540 nm (Ex in PBS): excited at 540 nm. How it is done: The compounds were exited at 540 nm and at the wavelength of their absorption peak 1 (λ1 nm). The far-red fluorescent DNA dye DRAQ5 was used as reference.
Compounds were dissolved in DMSO (Sigma) to 20 mM stock concentration. DRAQ5 (Biostatus Ltd) was used as a control anthraquinone agent dissolved in deionised water. Working solutions were prepared in PBS (phosphate buffered saline; Sigma) or HEPES (4-(2-hydroxyethyl)-1-piperazineethanesulfonic acid; Sigma) at 20 or 40 μM. Probe solutions (20 μM), respectively in PBS or HEPES, were pipetted into a 1 mL quartz cuvette (Thermo Fisher Scientific). After obtaining baseline spectra in relevant buffer to zero the instrument, absorbance measurements were obtained using a Beckmann Coulter DU 800 UV/Visible spectrophotometer. The excitation wavelengths were scanned from 280 to 800 nm. Fluorescent spectral scans were performed using a Perkin Elmer LS-50B Luminescence spectrophotometer. To obtain emission scans, the excitation wavelength was set accordingly to the maximum values for each agent or another designated excitation wavelength that matches typical laser lines; and the emission wavelength were scanned from 400 nm to 900 nm in 1 nm increments. A Xenon flash lamp was used as the light source, with the lamp energy set to high. For each data point ten measurements were acquired with the photomultiplier tube sensitivity set at 125.
Compounds were excited at a wavelength corresponding to the first absorbance peak 1 (FIG. 1A and FIG. 1B show absorption (line) and fluorescence (dots) spectra of compounds; both are normalised to peak value.

The subject of a further data set is A549 cells. The data set is described as follows: Pulse exposure to probes, time-lapse, reimaged after 72 h. Particulars: 20 uM for 15 mins, washout, T=72 h. In kind it is cell-based, human. The protocol: In this regard, A549 cells were seeded in a 24 well coverslip bottomed-plate, cultured overnight in McCoys media for 24 or 48 hours. The plates were placed onto an inverted automated microscope, with the capacity for acquiring an image sequence of different wells (therefore exposure to different agent labelling). An Axiovert 100 microscope (Carl Zeiss, Welwyn Garden City, UK) was fitted with an incubator for 37° C./5% CO2 maintenance (Solent Scientific, Portsmouth, UK), and an ORCA-ER CCD camera (Hamamatsu, Reading, UK). Illumination was controlled by a shutter in front of the transmission lamp, and an x, y positioning stage with separate z-focus (Prior Scientific, Cambridge, UK) controlled multi-field acquisition. Image capture was controlled using Metamorph software.
Cells were exposed to a constant dose (0-5 μM) or a pulsed dose of 0 or 20 μM agent for 15 minutes followed by washout with warmed full media.
All images were collected with a ×10 (PH1) apochromat objective lens providing a field size of 500 times 500 microns. In this case a phase contrast image was collected every 30 minutes for 72 hours. Single cell growth and expansion can be tracked over time. The cells were harvested and run through a flow cytometry (typically a FACS Calibur 635 nm excitation/661/16 emission).
A549 cells were loaded with 20 uM BST-101, BST-109 or BST-110 for 15 mins followed by washout. Cells were then time-lapsed and reimaged after T=72 h, as before, […]

The test system of another data set is MCF7. The data set is described as follows: MTT cellular viability (growth inhibition) assay, MCF7. In kind it is cell-based. Particulars: Homo sapiens, 0.25-100 μM, 72 h, Table 3. How it is done: as §3, §4
For the next data set, the system named is 2780/cp70. The data set is described as follows: Further tests against cell lines, 2780/cp70. In kind it is cell-based. The note with it: ratio to A2780.
A further data set deals with 2780AD. The data set is described as follows: Further tests against cell lines, 2780AD. In kind it is cell-based. Particulars: ratio to A2780. How it is done:
(§5) Further tests were carried out against A2780, 2780AD and MCP1 cell lines.

Another data set concerns MCP1. Kind of data set: Further tests against cell lines, MCP1. In kind it is cell-based. Particulars: ratio to A2780. How it is done: as §5

By IC50 is commonly meant the concentration that inhibits the measured activity by half. Read a high IC50 as weaker potency in that assay.

With `COC(CCCCNc1ccc(NCCCCC(OC)OC)c2c1C(=O)c1ccccc1C2=O)OC` [BST-101, 1,4-Bis(5,5-dimethoxypentylamino)anthracene-9,10-dione], the “subcellular localisation by CLSM” value in the data set with U-2 OS cells is “low levels of probe in the perinuclear region, with probable overload in Golgi body and large vesicles”. Further, the “staining pattern in live cells” value with A549 live cells was “heterogeneous cytoplasmic staining”. Besides, the IC50 with A549 is above 100000 nM; in the data set on MCF7, 750 nM. In data set [1], the “staining pattern in fixed cells” value is “diffuse cytoplasmic staining, with some perinuclear and nucleoli labelling”. Moreover, in data set [2] (excitation wavelength used for fluorescence spectra of FIG. 1A/1B), the peak excitation wavelength is recorded as 540 nm. In addition, the “fluorescence emission, 540 nm (Ex in PBS)” value in [2] (PBS, 20 μM) is listed as 712 nm. Besides, the “cell division and signal retention / location after pulse exposure” value with A549 cells is “dividing, and signal retained in the same membrane compartment as at the start”.
In the case of `COC(CNCCNc1ccc(NCCNCC(OC)OC)c2c1C(=O)c1c(O)ccc(O)c1C2=O)OC` [BST-200, 1,4-bis((2-((2,2-dimethoxyethyl)amino)ethyl)amino)-5,8-dihydroxyanthracene-9,10-dione], in the data set with 2780/cp70, the “RF (2780/cp70)” value stood at 0.09. For the same compound, the “staining pattern in live cells” value in the data set on A549 live cells is “heterogeneity on cytoplasmic load on, with bright fluorescence signal and staining of mitotic figures”. Moreover, the “RF (2780AD)” value in the data set with 2780AD came out at 2.9. Besides, in data set [1], the “fluorescence brightness / background in fixed cells” value is on record as “very bright fluorescence”; the “staining pattern in fixed cells” value was “cytoplasmic staining, good object recognition, and some heterogeneity on nuclear staining”. The “fluorescence emission, 540 nm (Ex in PBS)” value in data set [2] (PBS, 20 μM) turned out to be 690 nm. For the same compound, in data set [2] (excited at absorption peak 1 (λ1), HEPES, 20 μM), the “fluorescence emission, λ1 nm (Ex in HEPES)” value is 684 nm. In addition, the “fluorescence emission, λ1 nm (Ex in PBS)” value in data set [2] (excited at absorption peak 1 (λ1), PBS, 20 μM) worked out at 688 nm. For the same compound, the “RF (MCP1)” value in the data set with MCP1 came out at 0.26.
Take `COC(CNCCNc1ccc(NCCN(C)C)c2c1C(=O)c1c(O)ccc(O)c1C2=O)OC` [BST-302, 1-((2-((2,2-dimethoxyethyl)amino)ethyl)amino)-4-((2-(dimethylamino)ethyl)amino)-5,8-dihydroxyanthracene-9,10-dione]: the “RF (2780/cp70)” value in the data set with 2780/cp70 was 0.32. Besides, the “RF (2780AD)” value with 2780AD stood at 81.4. Besides, the “RF (MCP1)” value in the data set with MCP1 was determined as 0.61.
Regarding `COC(CNCCCNc1ccc(NCCN(C)C)c2c1C(=O)c1c(O)ccc(O)c1C2=O)OC` [BST-303, 1-((3-((2,2-dimethoxyethyl)amino)propyl)amino)-4-((2-(dimethylamino)ethyl)amino)-5,8-dihydroxyanthracene-9,10-dione], the “RF (2780/cp70)” value with 2780/cp70 stood at 0.19. The “RF (2780AD)” value with 2780AD worked out at 9.7. Also, the “RF (MCP1)” value in the data set with MCP1 worked out at 0.36.
On to `COC(CNCCCCNc1ccc(NCCN(C)C)c2c1C(=O)c1c(O)ccc(O)c1C2=O)OC` [BST-304, 1-((4-((2,2-dimethoxyethyl)amino)butyl)amino)-4-((2-(dimethylamino)ethyl)amino)-5,8-dihydroxyanthracene-9,10-dione], for which the “RF (2780/cp70)” value in the data set with 2780/cp70 is recorded as 0.07. The “RF (2780AD)” value in the data set on 2780AD is 11.8. In addition, the “RF (MCP1)” value in the data set on MCP1 amounted to 0.36.
Consider `COC(CNCCCCCNc1ccc(NCCN(C)C)c2c1C(=O)c1c(O)ccc(O)c1C2=O)OC` [BST-305, 1-((5-((2,2-dimethoxyethyl)amino)pentyl)amino)-4-((2-(dimethylamino)ethyl)amino)-5,8-dihydroxyanthracene-9,10-dione], for which, in the data set on 2780/cp70, the “RF (2780/cp70)” value amounted to 0.14. In addition, the “RF (2780AD)” value in the data set with 2780AD is 5.2. The “RF (MCP1)” value in the data set with MCP1 worked out at 0.53.
In the case of `N.N.[Cl][Pt][Cl]` [Cisplatin, reference compound], the “RF (2780/cp70)” value with 2780/cp70 worked out at 5.37. In the data set with 2780AD, the “RF (2780AD)” value came out at 4.6. The “RF (MCP1)” value in the data set with MCP1 is given as 1.26.

The record behind these values is patent US11447638B2, “Acetalanthraquinone derivatives useful for cellular staining” (BIOSTATUS LIMITED, priority 2016, dated 2022).
